Measurements from patent US9169217B2, “Arylalkyl esters of 4-amino-6-(substituted phenyl)-picolinates and 6-amino-2-(substituted phenyl)-pyrimidinecarboxylates and their use as selective herbicides for crops” (Dow AgroSciences LLC, priority 2011, dated 2015).

Tests used:
Format in all cases: in vivo
[1] = test system: Brassica sinapis (Mustard, wild); assay: Postemergence herbicidal activity in cereal crops (Example 14); conditions: wheat cropping systems, postemergence spray, 8.75 g ae/ha, 21 DAA
Experimental: (§1) Seeds of the desired test plant species were planted in Sun Gro Metro-Mix® 360 planting mixture, which typically has a pH of 6.0 to 6.8 and an organic matter content of about 30 percent, in plastic pots with a surface area of 84.6 cm^2. When required to ensure good germination and healthy plants, a fungicide treatment and/or other chemical or physical treatment was applied. The plants were grown for 7-36 d in a greenhouse with an approximate 14 h photoperiod which was maintained at about 18° C. during the day and 17° C. during the night. Nutrients and water were added on a regular basis and supplemental lighting was provided with overhead metal halide 1000-Watt lamps as necessary. The plants were employed for testing when they reached the second or third true leaf stage.
(§2) Treatments consisted of esters of compounds 33, 34, 39, 40 and 42 and B, F, G and H. Compound B is methyl 4-amino-3-chloro-6-(4-cyclopropylphenyl)-5-fluoropicolinate; compound F is methyl 6-amino-2-(4-chloro-2-fluoro-3-methoxyphenyl)-5-methoxypyrimidine-4-carboxylate; compound G is methyl 4-amino-3-chloro-6-(4-chloro-2-fluoro-3-methoxyphenyl)picolinate; and compound H is methyl 4-amino-3-chloro-6-(4-chloro-2-fluoro-3-(1-fluoroethyl)phenyl)-5-fluoropicolinate. A weighed amount, determined by the highest rate to be tested, of each test compound was placed in a 25 mL glass vial and was dissolved in 8 mL of a 97:3 v/v mixture of acetone and DMSO to obtain concentrated stock solutions. […] The concentrated stock solutions obtained were diluted with 16 mL of an aqueous mixture containing acetone, water, isopropyl alcohol, DMSO, Agri-dex crop oil concentrate, and Triton® X-77 surfactant in a 64.7:26.0:6.7:2.0:0.7:0.01 v/v ratio to obtain spray solutions containing the highest application rates. Additional application rates were obtained by serial dilution of 12 mL of the high rate solution into a solution containing 4 mL of a 97:3 v/v mixture of acetone and DMSO and 8 mL of an aqueous mixture containing acetone, water, isopropyl alcohol, DMSO, Agri-dex crop oil concentrate, and Triton® X-77 surfactant in a 48.5:39.0:10.0:1.5:1.0:0.02 v/v ratio to obtain ½×, ¼×, ⅛× and 1/16× rates of the high rate. Compound requirements are based upon a 12 mL application volume at a rate of 187 L/ha. Formulated compounds were applied to the plant material with an overhead Mandel track sprayer equipped with 8002E nozzles calibrated to deliver 187 L/ha over an application area of 0.503 m^2 at a spray height of 18 inches (43 cm) above average plant canopy height. Control plants were sprayed in the same manner with the blank.
(§3) The treated plants and control plants were placed in a greenhouse as described above and watered by sub-irrigation to prevent wash-off of the test compounds. After 20-22 d, the condition of the test plants as compared with that of the untreated plants was determined visually and scored on a scale of 0 to 100 percent where 0 corresponds to no injury and 100 corresponds to complete kill.

[2] = test system: Pennisetum glaucum (Foxtail, yellow); assay: as above; conditions: wheat cropping systems, postemergence spray, 8.75 g ae/ha, 21 DAA
Experimental: as §1, §2, §3

[3] = test system: Veronica persica (Speedwell, birdseye); assay: as above; conditions: wheat cropping systems, postemergence spray, 8.75 g ae/ha, 21 DAA
Experimental: as §1, §2, §3

[4] = test system: Brachiaria platyphylla (GRISEB.) NASH (broadleaf signalgrass); assay: Postemergence foliar-applied herbicidal activity in direct seeded rice (Example 16); conditions: rice cropping systems, 8.75 g ae/ha, 21 DAA, may represent multiple trials
Text: (§4) Seeds or nutlets of the desired test plant species were planted in a soil matrix prepared by mixing a loam soil (43 percent silt, 19 percent clay, and 38 percent sand, with a pH of about 8.1 and an organic matter content of about 1.5 percent) and river sand in an 80 to 20 ratio. The soil matrix was contained in plastic pots with a surface area of 139.7 cm^2. When required to ensure good germination and healthy plants, a fungicide treatment and/or other chemical or physical treatment was applied. The plants were grown for 10-17 d in a greenhouse with an approximate 14-h photoperiod which was maintained at about 29° C. during the day and 26° C. during the night. Nutrients and water were added on a regular basis and supplemental lighting was provided with overhead metal halide 1000-Watt lamps as necessary. The plants were employed for testing when they reached the second or third true leaf stage.
(§5) Treatments consisted of esters of compounds 1-4, 6-8, 10, 11, 13-16, 20-31, 35, 38, 41 and 42 and A-E. Compound A is methyl 4-amino-3-chloro-6-(4-chloro-3-ethoxy-2-fluorophenyl)-5-fluoropicolinate; compound B is methyl 4-amino-3-chloro-6-(4-cyclopropylphenyl)-5-fluoropicolinate; compound C is methyl 4-amino-3-chloro-6-(2,4-dichloro-3-methoxyphenyl)picolinate; compound D is methyl 6-amino-2-(4-chloro-2-fluoro-3-methoxyphenyl)-5-vinylpyrimidine-4-carboxylate; and compound E is methyl 4-amino-3-chloro-6-(4-chloro-2-fluoro-3-methoxyphenyl)-5-fluoropicolinate. Weighed amounts of technical grade compounds were placed in 25 mL glass vials and dissolved in a volume of 97:3 v/v acetone-DMSO to obtain 12× stock solutions. […] The concentrated stock solutions were added to the spray solutions so that the final acetone and DMSO concentrations were 16.2% and 0.5%, respectively. Spray solutions were diluted to the appropriate final concentrations with the addition of 10 mL of an aqueous mixture of 1.5% (v/v) Agri-dex crop oil concentrate. Generally, multiple concentrations of spray solutions were formulated and tested utilizing the same stock solution. The final spray solutions contained 1.25% (v/v) Agri-dex crop oil concentrate. Compound requirements are based upon a 12 mL application volume at a rate of 187 L/ha. Spray solutions were applied to the plant material with an overhead Mandel track sprayer equipped with 8002E nozzles calibrated to deliver 187 L/ha over an application area of 0.503 square meters (m^2) at a spray height of 18 inches (43 cm) above average plant canopy height. Control plants were sprayed in the same manner with the solvent blank.
as §3, with “After 3 weeks,” for “After 20-22 d,”, “test plants,” for “test plants as”, “untreated plants,” for “untreated plants”
(§6) By applying the well-accepted probit analysis as described by J. Berkson in Journal of the American Statistical […], 48, 565 (1953) and by D. Finney in “Probit Analysis” Cambridge University Press (1952), the data gathered can be used to calculate GR50 and GR80 values, which are defined as growth reduction factors that correspond to the effective dose of herbicide required to kill or control 50 percent or 80 percent, respectively, of a target plant.

[5] = test system: Cyperus difformis L. (small-flower flatsedge); assay: as above; conditions: post-emergence, 504 h, rice cropping systems, foliar-applied, 8.75 g ae/ha, 21 DAA, may represent multiple trials, read-out: Visual Injury (%) CYPDI
Text: as §4, §5
as §3, with “After 3 weeks,” for “After 20-22 d,”, “test plants,” for “test plants as”, “untreated plants,” for “untreated plants”
as §6

[6] = test system: Echinochloa colonum (L.) LINK (junglerice); assay: as above; conditions: Echinochloa colona, post-emergence, 504 h, rice cropping systems, 8.75 g ae/ha, 21 DAA, may represent multiple trials, read-out: Visual Injury (%) ECHCO
Text: as §4, §5
as §3, with “After 3 weeks,” for “After 20-22 d,”, “test plants,” for “test plants as”, “untreated plants,” for “untreated plants”
as §6

[7] = test system: Scirpus juncoides ROXB. (Japanese bulrush); assay: as above; conditions: Schoenoplectiella juncoides, post-emergence, 504 h; rice cropping systems, foliar-applied, 8.75 g ae/ha, 21 DAA; may represent multiple trials; read-out: Visual Injury (%) SCPJU
Text: as §4, §5
as §3, with “After 3 weeks,” for “After 20-22 d,”, “test plants,” for “test plants as”, “untreated plants,” for “untreated plants”
as §6

[8] = test system: Echinochloa crus-galli (L.) P.BEAUV. (barnyardgrass); assay: In-water applied herbicidal activity in transplanted paddy rice (Example 17); conditions: Echinochloa crus-galli, 504 h; rice cropping systems, in-water applied (paddy), 35 g ae/ha, 21 DAA; may represent multiple trials; read-out: Visual Injury (%) ECHCG
Experimental: (§7) Weed seeds or nutlets of the desired test plant species were planted in puddled soil (mud) prepared by mixing a non-sterilized mineral soil (28 percent silt, 18 percent clay, and 54 percent sand, with a pH of about 7.3 to 7.8 and an organic matter content of about 1.0 percent) and water at a ratio of 100 kilograms (kg) of soil to 19 liters (L) of water. The prepared mud was dispensed in 250 mL aliquots into 480 mL non-perforated plastic pots with a surface area of 91.6 cm^2 leaving a headspace of 3 cm in each pot. Rice seeds were planted in Sun Gro MetroMix 306 planting mixture, which typically has a pH of 6.0 to 6.8 and an organic matter content of about 30 percent, in plastic plug trays. Seedlings at the second or third leaf stage of growth were transplanted into 650 mL of mud contained in 960 mL non-perforated plastic pots with a surface area of 91.6 cm^2 four days prior to herbicide application. The paddy was created by filling the 3 cm headspace of the pots with water. When required to ensure good germination and healthy plants, a fungicide treatment and/or other chemical or physical treatment was applied. The plants were grown for 4-14 d in a greenhouse with an approximate 14-h photoperiod which was maintained at about 29° C. during the day and 26° C. during the night. Nutrients were added as Osmocote (17:6:10, Nitrogen:Phosphorus:Potassium (N:P:K)+minor nutrients) at 2 grams (g) per cup. Water was added on a regular basis to maintain the paddy flood, and supplemental lighting was provided with overhead metal halide 1000-Watt lamps as necessary. The plants were employed for testing when they reached the second or third true leaf stage.
(§8) Treatments consisted of esters of compounds 1-4, 6-33, 35-39, 41 and 42 and A-G. Compound A is methyl 4-amino-3-chloro-6-(4-chloro-3-ethoxy-2-fluorophenyl)-5-fluoropicolinate; compound B is methyl 4-amino-3-chloro-6-(4-cyclopropylphenyl)-5-fluoropicolinate; compound C is methyl 4-amino-3-chloro-6-(2,4-dichloro-3-methoxyphenyl)picolinate; compound D is methyl 6-amino-2-(4-chloro-2-fluoro-3-methoxyphenyl)-5-vinylpyrimidine-4-carboxylate; compound E is methyl 4-amino-3-chloro-6-(4-chloro-2-fluoro-3-methoxyphenyl)-5-fluoropicolinate; compound F is methyl 6-amino-2-(4-chloro-2-fluoro-3-methoxyphenyl)-5-methoxypyrimidine-4-carboxylate; and compound G is methyl 4-amino-3-chloro-6-(4-chloro-2-fluoro-3-methoxyphenyl)picolinate. Weighed amounts of technical grade compounds were placed in individual 120 mL glass vials and were dissolved in 20 mL of acetone to obtain concentrated stock solutions. […] The concentrated stock solutions obtained were diluted with 20 mL of an aqueous mixture containing 2.5% Agri-dex crop oil concentrate (v/v). The final application solutions contained 1.25% (v/v) Agri-dex crop oil concentrate. Generally, multiple concentrations were tested utilizing the same stock solution. Applications were made by injecting an appropriate amount of the application solution into the aqueous layer of the paddy. Control plants were treated in the same manner with the solvent blank.
(§9) The treated plants and control plants were placed in a greenhouse as described above and water was added as needed to maintain a paddy flood. After 3 weeks the condition of the test plants, compared with that of the untreated plants, was determined visually and scored on a scale of 0 to 100 percent where 0 corresponds to no injury and 100 corresponds to complete kill.
as §6

[9] = test system: Scirpus juncoides ROXB. (Japanese bulrush); assay: as above; conditions: Schoenoplectiella juncoides, 504 h; rice cropping systems, in-water applied (paddy), 35 g ae/ha, 21 DAA; may represent multiple trials; read-out: Visual Injury (%) SCPJU
Experimental: as §7, §8, §9, §6

Avena fatua (Oat, wild) = assay: Postemergence herbicidal activity in cereal crops (Example 14); conditions: wheat cropping systems, postemergence spray, 35 g ae/ha, 21 DAA
Experimental: as §1, §2, §3

[10] = test system: Lolium multiflorum (Ryegrass, Italian); assay: as above; conditions: wheat cropping systems, postemergence spray, 17.5 g ae/ha, 21 DAA
Experimental: as §1, §2, §3

[11] = test system: Matricaria chamomilla (Mayweed, wild); assay: as above; conditions: wheat cropping systems, postemergence spray, 35 g ae/ha, 21 DAA
Experimental: as §1, §2, §3

[12] = test system: Setaria viridis (Foxtail, green); assay: as above; conditions: wheat cropping systems, postemergence spray, 17.5 g ae/ha, 21 DAA
Experimental: as §1, §2, §3

[13] = test system: Cyperus rotundus L. (purple nutsedge); assay: In-water applied herbicidal activity in transplanted paddy rice (Example 17); conditions: rice cropping systems, 35 g ae/ha, 21 DAA, may represent multiple trials
Experimental: as §7, §8, §9, §6

SMILES | Visual Injury (%) SINAR [1] [%] | Visual Injury (%) PESGL [2] [%] | Visual Injury (%) VERPE [3] [%] | Visual Injury (%) BRAPP [4] [%] | pest or weed control at 8.75 g/ha [5] [%] | pest or weed control at 8.75 g/ha [6] [%] | pest or weed control at 8.75 g/ha [7] [%] | pest or weed control at 35 g/ha [8] [%] | pest or weed control at 35 g/ha [9] [%] | also measured
CC(F)c1c(Cl)ccc(-c2nc(C(=O)OCc3ccccc3)c(Cl)c(N)c2F)c1F (stereo not drawn) [Compound 40, benzyl 4-amino-3-chloro-6-(4-chloro-2-fluoro-3-(1-fluoroethyl)phenyl)-5-fluoropicolinate] | 98 | 65 | 95 | – | – | – | – | – | – | –
COC(=O)c1nc(-c2ccc(Cl)c(C(C)F)c2F)c(F)c(N)c1Cl (stereo not drawn) [Compound H, methyl 4-amino-3-chloro-6-(4-chloro-2-fluoro-3-(1-fluoroethyl)phenyl)-5-fluoropicolinate, reference compound] | 87 | 0 | 80 | – | – | – | – | – | – | –
COC(=O)c1nc(-c2ccc(Cl)c(OC)c2Cl)cc(N)c1Cl [Compound C, methyl 4-amino-3-chloro-6-(2,4-dichloro-3-methoxyphenyl)picolinate, reference compound] | – | – | – | 74 | 96 | 84 | 90 | 36 | 83 | –
COc1c(N)nc(-c2ccc(Cl)c(OC)c2F)nc1C(=O)OCCc1ccccc1 [Compound 34] | – | – | – | – | – | – | – | – | – | Visual Injury (%) AVEFA (Avena fatua (Oat, wild)): 40%; Visual Injury (%) LOLMU [10]: 70%; Visual Injury (%) MATCH [11]: 20%; Visual Injury (%) SETVI [12]: 80%
COc1c(Cl)ccc(-c2cc(N)c(Cl)c(C(=O)OCc3ccc(Cl)cc3Cl)n2)c1F [Compound 17, 2,4-dichlorobenzyl 4-amino-3-chloro-6-(4-chloro-2-fluoro-3-methoxyphenyl)picolinate] | – | – | – | – | – | – | – | 98 | – | Visual Injury (%) CYPRO [13]: 100%
COc1c(Cl)ccc(-c2cc(N)c(Cl)c(C(=O)OCc3ccccc3)n2)c1Cl [Compound 38, benzyl 4-amino-3-chloro-6-(2,4-dichloro-3-methoxyphenyl)-picolinate] | – | – | – | 90 | 100 | 90 | 100 | 99 | 100 | –
